These results are taken from PMC10797590, “Exploring Rigid and Flexible Scaffolds to Develop Potent Glucuronic Acid Glycodendrimers for Dengue Virus Inhibition” (Bioconjugate Chemistry, 2023).

For assay [1], the target named is T1, dengue virus envelope protein 2 (DENV2) (Dengue virus type 2, UniProt P29990).
T1 construct: Dengue virus envelope protein 2 (DENV2) was purchased from the Native Antigen Company; purchased Native Antigen Company
Put plainly: SPR binding study of GlcA glycodendrimers on immobilized DENV2 (Biacore 3000, CM4 chip). Also noted: species or system dengue virus serotype 2. Particulars: for SPR binding response: GD flowed at 100 μM over immobilized DENV2; for Kd: read-out: dissociation constant KD, steady-state analysis of SPR, 1:1 Langmuir model, immobilized DENV2, 25 °C. Here is the method: In order to evaluate the ability of GDs 4a–f, 9a–c, and 12a–c to interact with dengue virus envelope protein 2 (DENV2), an SPR binding study was carried out.
Compounds 4a–f, 9a–c, and 12a–c were flowed on immobilized DENV2 at a concentration of 100 μM (Figure 1).
Dengue virus envelope protein 2 (DENV2) was purchased from the Native Antigen Company. SPR sensor chips CM4 (carboxymethylated dextran) and other reagents used in SPR experiments were purchased from GE Healthcare. SPR experiments were performed with a Biacore 3000.
SPR experiments were performed at 25 °C with a Biacore 3000 (GE Healthcare). PBST (10 mm phosphate, pH 7.40, 150 mm NaCl, and 0.005% v/v surfactant P20) was used as a running buffer. A solution with the dengue virus serotype 2 protein (DENV2) was adjusted to 20 μg/mL in 10 mM citrate pH 4.00 buffer, and the protein was immobilized in flow cell 1 of a CM4 sensor chip by following the amine coupling method according to the manufacturer’s instructions. Prior to injection over the sensor chip, DENV2 was mixed with a 4-fold molar excess of HS, for 30 min at 4 °C, to protect the GAG-binding domains of the envelope protein. The immobilization response was 2000 RU, and then, the sensor surface was washed with 1 M NaCl to remove the bound HS. Sensor chip flow cell 2 was activated, blocked, and used as a reference surface. Blank samples and concentration series were injected on a CM4 chip at a flow rate of 40 μL/min for 180 s, and dissociation was registered for 180 s.
Initially, compounds 4a–f, 9a–c, and 12a–c were flowed on the immobilized DENV2 at a 100 μM concentration. Then different concentration of GDs (5–125 μM) were flowed on the immobilized DENV2 (compound 12b: 5–125 μM; 12c: 5–150 μM; 9b: 25–250 μM; 4c: 25-250 μM).25–250 μM). Data processing and analysis were carried out with Biaevaluation v.4.1.1 (GE Healthcare).
All signals were blank-subtracted, reference-corrected, and globally adjusted to an adequate kinetic model to obtain binding parameters. […] Instead, a steady-state analysis kinetic analysis was carried out assuming the 1:1 Langmuir model. The value of KA is obtained by fitting a plot of RU in the plateau region against the GD concentration, which generates the following equations. [drawing 1] [drawing 2] [drawing 3] [drawing 4] KD is calculated as the inverse of KA (KD = 1/KA).
For orientation: In SPR one partner is held on a chip, and binding of the other changes the refractive index at the surface.

In assay [2] the target is DENV2 envelope protein. Particulars: SPR, same experimental conditions as current study; cited from earlier work.

As to `O=C(O)[C@H]1O[C@@H](OCCCn2cc(CN(Cc3cn(CCCO[C@@H]4O[C@H](C(=O)O)[C@@H](O)[C@H](O)[C@H]4O)nn3)Cc3cn(CCCO[C@@H]4O[C@H](C(=O)O)[C@@H](O)[C@H](O)[C@H]4O)nn3)nn2)[C@H](O)[C@@H](O)[C@@H]1O` [12a], the SPR binding response in assay [1] worked out at 9.8 RU.
The same measure, in the same setting: the result for `O=C(O)[C@H]1O[C@@H](OCCCn2cc(COc3cc(COc4cc(OCc5cc(OCc6cn(CCCO[C@@H]7O[C@H](C(=O)O)[C@@H](O)[C@H](O)[C@H]7O)nn6)cc(OCc6cn(CCCO[C@@H]7O[C@H](C(=O)O)[C@@H](O)[C@H](O)[C@H]7O)nn6)c5)cc(OCc5cc(OCc6cn(CCCO[C@@H]7O[C@H](C(=O)O)[C@@H](O)[C@H](O)[C@H]7O)nn6)cc(OCc6cn(CCCO[C@@H]7O[C@H](C(=O)O)[C@@H](O)[C@H](O)[C@H]7O)nn6)c5)c4)cc(OCc4cn(CCCO[C@@H]5O[C@H](C(=O)O)[C@@H](O)[C@H](O)[C@H]5O)nn4)c3)nn2)[C@H](O)[C@@H](O)[C@@H]1O` [4d] reads 0.3 RU.
In general, Kd refers to the equilibrium constant for the complex coming apart. Consider `O=C(O)[C@H]1O[C@@H](OCCCn2cc(COc3cc(COCc4cc(OCc5cn(CCCO[C@@H]6O[C@H](C(=O)O)[C@@H](O)[C@H](O)[C@H]6O)nn5)c(OCc5cn(CCCO[C@@H]6O[C@H](C(=O)O)[C@@H](O)[C@H](O)[C@H]6O)nn5)c(OCc5cn(CCCO[C@@H]6O[C@H](C(=O)O)[C@@H](O)[C@H](O)[C@H]6O)nn5)c4)cc(OCc4cn(CCCO[C@@H]5O[C@H](C(=O)O)[C@@H](O)[C@H](O)[C@H]5O)nn4)c3OCc3cn(CCCO[C@@H]4O[C@H](C(=O)O)[C@@H](O)[C@H](O)[C@H]4O)nn3)nn2)[C@H](O)[C@@H](O)[C@@H]1O` [9b], for which, in assay [1], the SPR binding response is listed as 68.5 RU and the Kd worked out at 1750 nM.
For the compound heparin [reference compound], the Kd in assay [2] was 56 nM. Moreover, in assay [1] (heparin KD 56 nM vs 12b and 12c KD), the “fold difference of KD of heparin versus GDs 12b and 12c” value is listed as 8.6–11 fold.
Compound `O=C(O)[C@H]1O[C@@H](OCCCn2cc(COc3cc(COCc4cc(OCc5cn(CCCO[C@@H]6O[C@H](C(=O)O)[C@@H](O)[C@H](O)[C@H]6O)nn5)cc(OCc5cn(CCCO[C@@H]6O[C@H](C(=O)O)[C@@H](O)[C@H](O)[C@H]6O)nn5)c4)cc(OCc4cn(CCCO[C@@H]5O[C@H](C(=O)O)[C@@H](O)[C@H](O)[C@H]5O)nn4)c3)nn2)[C@H](O)[C@@H](O)[C@@H]1O` [9a] returned an SPR binding response in assay [1] of 5.0 RU.
Same read-out and setting: the result for `O=C(O)[C@H]1O[C@@H](OCCCn2cc(COc3cc(COc4cc(COCc5cc(OCc6cc(OCc7cn(CCCO[C@@H]8O[C@H](C(=O)O)[C@@H](O)[C@H](O)[C@H]8O)nn7)cc(OCc7cn(CCCO[C@@H]8O[C@H](C(=O)O)[C@@H](O)[C@H](O)[C@H]8O)nn7)c6)cc(OCc6cc(OCc7cn(CCCO[C@@H]8O[C@H](C(=O)O)[C@@H](O)[C@H](O)[C@H]8O)nn7)cc(OCc7cn(CCCO[C@@H]8O[C@H](C(=O)O)[C@@H](O)[C@H](O)[C@H]8O)nn7)c6)c5)cc(OCc5cc(OCc6cn(CCCO[C@@H]7O[C@H](C(=O)O)[C@@H](O)[C@H](O)[C@H]7O)nn6)cc(OCc6cn(CCCO[C@@H]7O[C@H](C(=O)O)[C@@H](O)[C@H](O)[C@H]7O)nn6)c5)c4)cc(OCc4cn(CCCO[C@@H]5O[C@H](C(=O)O)[C@@H](O)[C@H](O)[C@H]5O)nn4)c3)nn2)[C@H](O)[C@@H](O)[C@@H]1O` [9c] reads 0.0 RU.
For the compound `O=C(O)[C@H]1O[C@@H](OCCCn2cc(COc3cc(COCC(COCc4cc(OCc5cn(CCCO[C@@H]6O[C@H](C(=O)O)[C@@H](O)[C@H](O)[C@H]6O)nn5)cc(OCc5cn(CCCO[C@@H]6O[C@H](C(=O)O)[C@@H](O)[C@H](O)[C@H]6O)nn5)c4)(COCc4cc(OCc5cn(CCCO[C@@H]6O[C@H](C(=O)O)[C@@H](O)[C@H](O)[C@H]6O)nn5)cc(OCc5cn(CCCO[C@@H]6O[C@H](C(=O)O)[C@@H](O)[C@H](O)[C@H]6O)nn5)c4)COCc4cc(OCc5cn(CCCO[C@@H]6O[C@H](C(=O)O)[C@@H](O)[C@H](O)[C@H]6O)nn5)cc(OCc5cn(CCCO[C@@H]6O[C@H](C(=O)O)[C@@H](O)[C@H](O)[C@H]6O)nn5)c4)cc(OCc4cn(CCCO[C@@H]5O[C@H](C(=O)O)[C@@H](O)[C@H](O)[C@H]5O)nn4)c3)nn2)[C@H](O)[C@@H](O)[C@@H]1O` [12c], in assay [1], the SPR binding response is on record as 153 RU and the Kd was 624 nM.
For `O=C(O)[C@H]1O[C@@H](OCCCn2cc(COc3cc(COCCN(CCOCc4cc(OCc5cn(CCCO[C@@H]6O[C@H](C(=O)O)[C@@H](O)[C@H](O)[C@H]6O)nn5)cc(OCc5cn(CCCO[C@@H]6O[C@H](C(=O)O)[C@@H](O)[C@H](O)[C@H]6O)nn5)c4)CCOCc4cc(OCc5cn(CCCO[C@@H]6O[C@H](C(=O)O)[C@@H](O)[C@H](O)[C@H]6O)nn5)cc(OCc5cn(CCCO[C@@H]6O[C@H](C(=O)O)[C@@H](O)[C@H](O)[C@H]6O)nn5)c4)cc(OCc4cn(CCCO[C@@H]5O[C@H](C(=O)O)[C@@H](O)[C@H](O)[C@H]5O)nn4)c3)nn2)[C@H](O)[C@@H](O)[C@@H]1O` [12b] the same measures were 203.4 RU and 487 nM.
In the case of `O=C(O)[C@H]1O[C@@H](OCCCn2cc(COc3cc4c5cc(OCc6cn(CCCO[C@@H]7O[C@H](C(=O)O)[C@@H](O)[C@H](O)[C@H]7O)nn6)c(OCc6cn(CCCO[C@@H]7O[C@H](C(=O)O)[C@@H](O)[C@H](O)[C@H]7O)nn6)cc5c5cc(OCc6cn(CCCO[C@@H]7O[C@H](C(=O)O)[C@@H](O)[C@H](O)[C@H]7O)nn6)c(OCc6cn(CCCO[C@@H]7O[C@H](C(=O)O)[C@@H](O)[C@H](O)[C@H]7O)nn6)cc5c4cc3OCc3cn(CCCO[C@@H]4O[C@H](C(=O)O)[C@@H](O)[C@H](O)[C@H]4O)nn3)nn2)[C@H](O)[C@@H](O)[C@@H]1O` [4e], the SPR binding response in assay [1] is listed as 0.0 RU.
Still for that read-out and setting: the result for `O=C(O)[C@H]1O[C@@H](OCCCn2cc(COc3cc(OCc4cn(CCCO[C@@H]5O[C@H](C(=O)O)[C@@H](O)[C@H](O)[C@H]5O)nn4)cc(OCc4cn(CCCO[C@@H]5O[C@H](C(=O)O)[C@@H](O)[C@H](O)[C@H]5O)nn4)c3)nn2)[C@H](O)[C@@H](O)[C@@H]1O` [4c] reads 60.8 RU.
